“Also recorded” adds a separate entry of the source. Where a SMILES comes first, the peptide text is derived from it. The star is where a group is joined. Cbz = O=C(OCc1ccccc1)*; CH2F = FC*
Legend:
[1] = tested on: motor neurons on mutant SOD1 astrocyte layer; assay: Motor neuron / mutant SOD1 astrocyte co-cultures incubated with CNQX or Fas-Fc (FIG. 11c,d); format: cell-based, mouse; details: 100 μM CNQX
Protocol: FIG. 11a-e. Glutamate, Fas ligand and several major cytokines and chemokines are not involved in the toxicity of mutant SOD1 astrocytes to motor neurons. […] (b) 14 d-old-confluent ^NTgAML or ^G93AAML were incubated with 200 μM of glutamate. Then, the extracellular concentration of glutamate was monitored by HPLC at 0, 0.5, 1, 3, 6 and 24 hr. No interaction was found between the timing of glutamate decrease in the medium and the genotypes of the two astrocyte layers (F[2.241]=0.430; P=0.826; ANOVA). […] (e) The relative contents of 19 cytokines/chemokines were screened by array in CMd from G93A and NTg astrocytes. The genotypic differences were highlighted in bold. […]
Results are expressed as mean±standard error of the mean (s.e.m.) for 3-6 independent experiments. […] Each coverslip was counted at ×100 under fluorescent examination in its entirety. To determine the proportion of dying or apoptotic neurons, ≧750 MAP2^+ neurons were counted per culture. Differences between means were analyzed by a two-tailed Student's t-test whereas among means by one- or two-way ANOVA with the different types of mice, treatment doses, or time as the independent factors. […] For morphometry studies, differences were analyzed by Kolmogorov-Smimov test (www.physics.csbsju.edu/stats/KS-test.n.plot_form.html). […]

ESMN plated on G93A AML = assay: Co-culture of embryonic stem cell-derived motor neurons (ESMN) on mutant SOD1 G93A astrocyte monolayers with pharmacological treatment; survival and death counted at 7 d; format: cell-based, mouse; details: 7 d post-plating, V5 50-200 μM, zVAD-fmk 10-20 μM; for percentages of surviving ESMN: ESMN on G93A AML, vs vehicle; for percentages of ESMN / MAP2+ neurons labeled with EthD (dying cells) / percentages of embryonic stem cell-derived MAP2+/fractin+ neurons (apoptosis): G93A AML co-cultures, vs vehicle (DMSO), added daily
Protocol: Glial monolayers were prepared from spinal cord from transgenic SOD^G93A, SOD^G37R, SOD^G85R, SOD^WT of newborn pups as described by Silva and collaborators^31. Cell suspensions were plated in glial medium: Dubelco Modified Eagle's medium (DMEM; Invitrogen, Carlsbad, Calif.) containing 10% fetal bovine serum (FBS; Invitrogen), 100 U/mL penicillin and 100 μg/mL streptomycin (penicillin/streptomycin, Invitrogen). After 2 weeks, glial cultures contained 95% of glial acidic fibrillary protein (GFAP)^+ astrocytes, 5% of CD11b^+ microglia, and no neuron or oligodendrocyte as indicated by the lack of respectively MAP2 or 2′-3′-cyclic nucleotide phosphohydrolase immunoreactivity (data not shown). To eliminate residual microglia, 2-week-old flasks were agitated (200 rpm; 6 h) and astrocytes were detached by 0.25% trypsin (Invitrogen) and plated onto coverslips at a density of 20,000 cells/cm^2.
Cells were derived from Hlxb9-GFP1Tmj transgenic mice^13 and differentiated into ESMN as described previously^13. To form EBs, cells were grown for 2 d in 1:1 (v/v) DMEM/Ham's F-12 media (Invitrogen) medium containing B27 supplement (Invitrogen), penicillin/streptomycin and 0.1 mM β-mercaptoethanol (Sigma, Saint Louis, Mo.). They were treated with 1 μM retinoic acid (Sigma) and 400 nM sonic hedgehog agonist (Hh-Ag1.3, Curls Inc., Cambridge, Mass.) for 5 d and dissociated with papain (Worthington, Lakewood, N.J.). Cells were plated at 1,600 eGFP-positive cells/cm^2 in motor neuron medium: Neurobasal medium (Invitrogen) containing 2% horse serum (heat inactivated; Invitrogen), B27 supplement, 0.5 mM glutamine (Invitrogen), 25 μM β-mercaptoethanol, penicillin/streptomycin. To obtain LH2-positive neurons, once EBs were formed they were treated with 0.1 μM retinoic acid and 15 ng/mL bone morphogenetic protein 4 (R&D systems, Minneapolis, Minn.) for 5 d before papain dissociation. Then, 1,500 cells/cm^2 were plated onto astrocyte monolayer in motor neuron medium.
For EthD (Molecular Probes) estimation of death, cells were incubated with 2 μM EthD (diluted in D-PBS; 45 min; RT) as we previously reported^36. For immunocytochemistry and the other cell labelings, cells were processed as we previously described^36. Primary antibodies used were: rabbit polyclonal anti-eGFP (1:2000; Molecular Probes), anti-fractin (1:5000; BD Pharmingen, San Jose, Calif.), GABA (1:2000; Chemicon), anti-Lim2 (1:150; from Dr. Jessell's lab), and anti-HB9 (1:1000 from T M Jessell's lab); goat polyclonal anti-ChAT (1:100; Chemicon, Temecula, Calif.); sheep polyclonal anti-SOD1 (1:500; Calbiochem), rabbit anti-protein gene product 9.5 (PG-P 9.5; 1:2000; Chemicon) and mouse monoclonal anti-MAP-2 (1:1000; Chemicon), anti-GFAP (1:1000; Sigma), anti-Islet 1/2 (1:100; from TM Jessell's lab), anti-LH2 (1:2; from T M Jessell's lab), and anti-SMI-32 for non-phosphorylated neurofilament heavy chain (1:1000, Sternberger monoclonals, Lutherville, Md.). Terminal deoxy-UTP nick-end labeling (Tunel, in situ cell death detection kit, Roche Diagnostic, Indianapolis, Ind.) were performed following the manufacturer's recommendations.
zVAD-fmk and V5 (Sigma) were dissolved in DMSO and add to co-cultures to final concentrations ranging from 10-20 μM for the former and 50-200 μM for the latter. Fresh drugs were added daily. Cell survival and death were evaluated at 7 d by counting eGFP^+/HB9^+ neurons, and EthD- and fractin-labeled cells as described below.
Results are expressed as mean±standard error of the mean (s.e.m.) for 3-6 independent experiments. Each experiment corresponds ≧3 transgenic and non-transgenic co-cultures from the same litter and 3 coverslips per time point and per condition. Each coverslip was counted at ×100 under fluorescent examination in its entirety. To determine the proportion of dying or apoptotic neurons, ≧750 MAP2^+ neurons were counted per culture. […]

| Compound | mutant SOD1 astrocyte-mediated motor neuron death [1] | percentages of surviving ESMN (ESMN plated on G93A AML) | percentages of surviving ESMN (ESMN plated on G93A AML; listed as zVAD.fmk) | percentages of ESMN / MAP2+ neurons labeled with EthD (dying cells) (ESMN plated on G93A AML) | percentages of embryonic stem cell-derived MAP2+/fractin+ neurons (apoptosis) (ESMN plated on G93A AML) |
| --- | --- | --- | --- | --- | --- |
| N#Cc1cc2[nH]c(=O)c(=O)[nH]c2cc1[N+](=O)[O-] [CNQX] | did not influence | – | – | – | – |
| COC(=O)C[C@H](NC(=O)[C@H](C)NC(=O)[C@@H](NC(=O)OCc1ccccc1)C(C)C)C(=O)CF [zVAD-fmk] (Cbz-Val-Ala-Asp(OMe)-CH2F) | – | failed to improve | had no effect | had no effect | decreased |
| VPMLK [V5] | – | augmented; also recorded: increases | – | diminished; also recorded: decreases | reduced specifically; also recorded: decreases; also recorded: inhibited apoptosis |

Reference: patent US9765297B2, “Stem cell-based culture system for drug development” (THE TRUSTEES OF COLUMBIA UNIVERSITY IN THE CITY OF NEW YORK, priority 2007, dated 2017)
